Assay results: ChEMBL document CHEMBL4610120, “New Broad-Spectrum Antibiotics Containing a Pyrrolobenzodiazepine Ring with Activity against Multidrug-Resistant Gram-Negative Bacteria” (J Med Chem, 2020)
In brackets after ≈: the same amount, converted by molar mass.

Assays:
[1] = target: T1, DNA repair protein RecN (Escherichia coli) (UniProt P05824); assay: Induction of Escherichia coli K12 MG1655 recN promotor measured at 30 mins interval for 20 hrs by fluorescence assay relative to control; details: Escherichia coli str. K-12 substr. MG1655
T1 sequence (whole entry): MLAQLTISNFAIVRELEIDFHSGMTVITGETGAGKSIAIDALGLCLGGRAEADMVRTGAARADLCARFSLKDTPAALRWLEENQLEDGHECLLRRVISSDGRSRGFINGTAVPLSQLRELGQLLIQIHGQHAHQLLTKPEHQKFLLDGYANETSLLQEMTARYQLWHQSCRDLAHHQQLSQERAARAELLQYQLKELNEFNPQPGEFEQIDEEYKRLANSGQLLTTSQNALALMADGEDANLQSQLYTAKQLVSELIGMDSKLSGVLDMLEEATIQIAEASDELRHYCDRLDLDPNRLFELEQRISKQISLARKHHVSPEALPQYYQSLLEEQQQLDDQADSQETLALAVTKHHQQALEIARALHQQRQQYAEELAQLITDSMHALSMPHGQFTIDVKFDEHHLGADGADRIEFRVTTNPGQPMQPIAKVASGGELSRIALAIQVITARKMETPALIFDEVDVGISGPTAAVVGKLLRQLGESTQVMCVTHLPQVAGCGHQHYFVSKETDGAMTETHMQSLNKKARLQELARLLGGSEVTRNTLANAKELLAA

Pseudomonas aeruginosa [2] = assay: Antimicrobial activity against multidrug-resistant Pseudomonas aeruginosa NCTC 13437 in presence of efflux pump inhibitor CCCP by microdilution broth method; type: functional
Klebsiella pneumoniae [3] = assay: Antimicrobial activity against multidrug-resistant Klebsiella pneumoniae NCTC 13438 in presence of efflux pump inhibitor PAbetaN by microdilution broth method; type: functional
[4] = Selectivity ratio of cytotoxicity against human WI38 cells to MIC for multidrug-resistant Klebsiella pneumoniae NCTC 13368; type: toxicity, cell-based
Acinetobacter baumannii [5] = assay: Antimicrobial activity against multidrug-resistant Acinetobacter baumannii AYE by microdilution broth method; type: functional
Pseudomonas aeruginosa [6] = assay: Antimicrobial activity against Pseudomonas aeruginosa PAO1 in presence of efflux pump inhibitor CCCP by microdilution broth method; type: functional
Escherichia coli [7] = assay: Antimicrobial activity against multidrug-resistant Escherichia coli CFI_033_NDM by microdilution broth method; type: functional
[8] = target: T2, LexA repressor (Escherichia coli) (UniProt P0A7C2); assay: Induction of Escherichia coli K12 MG1655 lexA promotor measured at 30 mins interval for 20 hrs by fluorescence assay relative to control; details: Escherichia coli str. K-12 substr. MG1655
T2 sequence (whole entry): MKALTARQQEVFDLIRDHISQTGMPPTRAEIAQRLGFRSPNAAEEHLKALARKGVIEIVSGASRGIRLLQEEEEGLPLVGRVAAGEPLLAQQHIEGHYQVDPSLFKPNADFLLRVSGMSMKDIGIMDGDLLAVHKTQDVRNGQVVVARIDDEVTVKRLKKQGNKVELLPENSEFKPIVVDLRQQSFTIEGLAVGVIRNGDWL

Pseudomonas aeruginosa [9] = assay: Antimicrobial activity against Pseudomonas aeruginosa PAO1 by microdilution broth method; type: functional
Klebsiella pneumoniae [10] = assay: Bactericidal activity against multidrug-resistant Klebsiella pneumoniae 16 assessed as viable bacterial count at 4 times MIC measured after 4 to 24 hrs by Miles-Misra dilution method based time-kill assay; type: functional, organism-based
Klebsiella pneumoniae [11] = assay: Antimicrobial activity against multidrug-resistant Klebsiella pneumoniae 16 by microdilution broth method; type: functional
Escherichia coli [12] = assay: Antimicrobial activity against multidrug-resistant Escherichia coli CFI_161_NDM_5_OXA_181 by microdilution broth method; type: functional
Acinetobacter baumannii [13] = assay: Antimicrobial activity against Acinetobacter baumannii ATCC 17978 assessed as mutation frequency at 4 times MIC measured after 48 hrs; type: functional
Escherichia coli [14] = assay: Antimicrobial activity against multidrug-resistant Escherichia coli 319238/UR by microdilution broth method; type: functional
[15] = target: T3, Protein RecA (Escherichia coli K-12) (UniProt P0A7G6); assay: Induction of Escherichia coli K12 MG1655 recA promotor measured at 30 mins interval for 20 hrs by fluorescence assay relative to control; details: Escherichia coli str. K-12 substr. MG1655
T3 sequence (whole entry): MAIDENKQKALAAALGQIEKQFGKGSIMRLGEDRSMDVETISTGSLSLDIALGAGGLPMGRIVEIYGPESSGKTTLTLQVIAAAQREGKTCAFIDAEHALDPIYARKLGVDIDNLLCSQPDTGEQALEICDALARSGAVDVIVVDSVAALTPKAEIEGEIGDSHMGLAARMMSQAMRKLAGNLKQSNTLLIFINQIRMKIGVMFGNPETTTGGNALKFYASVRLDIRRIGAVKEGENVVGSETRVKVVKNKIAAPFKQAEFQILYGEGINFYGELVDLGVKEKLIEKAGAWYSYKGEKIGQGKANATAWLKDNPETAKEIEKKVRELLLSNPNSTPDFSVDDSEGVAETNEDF

[16] = Selectivity ratio of cytotoxicity against human WI38 cells to MIC for multidrug-resistant Pseudomonas aeruginosa NCTC 13437; type: toxicity, cell-based
Escherichia coli [17] = assay: Antimicrobial activity against multidrug-resistant Escherichia coli LEC001 by microdilution broth method; type: functional
[18] = Ratio of MIC for Pseudomonas aeruginosa PAO1 to MIC for Pseudomonas aeruginosa PW1783 harboring MexAB-OprM mutant; type: functional
Burkholderia cenocepacia = assay: Antimicrobial activity against multidrug-resistant Burkholderia cenocepacia K56-2 by microdilution broth method; type: functional
[19] = Antimicrobial activity against multidrug-resistant Burkholderia cepacia complex CEP509 by microdilution broth method; type: functional
Klebsiella pneumoniae [20] = assay: Antimicrobial activity against Klebsiella pneumoniae tnkp1_lr150124p14q189 by microdilution broth method; type: functional
DNA = assay: Stabilization of 5'-FAM-TAT-AGA-TAT-AGA-TAT-TTT-ATA-TCT-ATA-TCT-ATA-3'-TAMRA DNA (unknown origin) assessed as reduction in change in melting temperature at 1:1 to 5:1 ligand to DNA ratio measured after 3 hrs by FRET-based assay relative to control; type: ADME, nucleic-acid assay
Pseudomonas aeruginosa [21] = assay: Ratio of MIC for Pseudomonas aeruginosa PAO1 to MIC for Pseudomonas aeruginosa PAO1 in presence of membrane permeabilizer PMBN; type: functional
Acinetobacter baumannii [22] = assay: Antimicrobial activity against multidrug-resistant Acinetobacter baumannii NCTC 13424 in presence of efflux pump inhibitor PAbetaN by microdilution broth method; type: functional
Escherichia coli [23] = assay: Antimicrobial activity against multidrug-resistant Escherichia coli NCTC 12923 by microdilution broth method; type: functional
DNA gyrase = DNA gyrase (Escherichia coli, UniProt P0AES6+P0AES4); assay: Inhibition of Escherichia coli DNA gyrase using relaxed pNO1 as substrate by gel based fluorescence assay; type: protein-complex assay
Klebsiella pneumoniae [24] = assay: Antibacterial activity against multidrug-resistant Klebsiella pneumoniae NCTC 13368-7-R1 measured after 10 passages in presence of membrane permeabilizer PMBN by microdilution broth method; type: functional
Acinetobacter baumannii [25] = assay: Antimicrobial activity against multidrug-resistant Acinetobacter baumannii NCTC 13424 by microdilution broth method; type: functional
Pseudomonas aeruginosa [26] = assay: Antimicrobial activity against multidrug-resistant Pseudomonas aeruginosa NCTC 13437 in presence of membrane permeabilizer PMBN by microdilution broth method; type: functional
Pseudomonas aeruginosa [27] = assay: Antimicrobial activity against multidrug-resistant Pseudomonas aeruginosa NCTC 13437 by microdilution broth method; type: functional

| SMILES | fold change (FC) [1] | MIC (Pseudomonas aeruginosa [2]) | MIC (Klebsiella pneumoniae [3]) | selectivity ratio [4] | MIC (Acinetobacter baumannii [5]) | MIC (Pseudomonas aeruginosa [6]) | MIC (Escherichia coli [7]) | fold change (FC) [8] | MIC (Pseudomonas aeruginosa [9]) | MIC (Klebsiella pneumoniae [11]) | MIC (Escherichia coli [12]) | MIC (Escherichia coli [14]) | fold change (FC) [15] | selectivity ratio [16] | MIC (Escherichia coli [17]) | Ratio [18] | MIC (Burkholderia cenocepacia) | MIC [19] | MIC (Klebsiella pneumoniae [20]) | fold change (FC) (DNA) | other results |
| --- | --- | --- | --- | --- | --- | --- | --- | --- | --- | --- | --- | --- | --- | --- | --- | --- | --- | --- | --- | --- | --- |
| COc1cc2c(cc1OCCCC(=O)Nc1cc(C(=O)Nc3ccc4sc(C(=O)N(C)C)cc4c3)n(C)c1)N=C[C@@H]1CCCN1C2=O | 6 to 11 | > 32 µg/mL | 0.25 µg/mL | 10 | 0.5 to 1 µg/mL (≈ 0.761 to 1.52 µM) | > 32 µg/mL | 0.5 µg/mL (≈ 0.761 µM) | 5 to 9 | > 32 µg/mL | 0.25 to 1 µg/mL (≈ 0.381 to 1.52 µM) | 0.5 µg/mL (≈ 0.761 µM) | 0.5 µg/mL (≈ 0.761 µM) | 8 to 10 | 10 | 1 µg/mL (≈ 1.52 µM) | > 8 | 2 µg/mL (≈ 3.05 µM) | 2 µg/mL (≈ 3.05 µM) | 16 to 32 µg/mL (≈ 24.4 to 48.7 µM) | 3 to 4 | Activity (Klebsiella pneumoniae [10]): Below limit of detection; Activity (Acinetobacter baumannii [13]): <1.5 ×10⁻⁸ No_unit; Ratio (Pseudomonas aeruginosa [21]): >=4 - 16; MIC (Acinetobacter baumannii [22]): 0.25 µg/mL; MIC (Escherichia coli [23]): 0.5 µg/mL (≈ 0.761 µM); IC50 (DNA gyrase): Nd(Insoluble) |
| COc1cc2c(cc1OCCCC(=O)Nc1cc(C(=O)Nc3ccc4oc(C(=O)N5CCSCC5)cc4c3)n(C)c1)N=C[C@@H]1CCCN1C2=O | 6 to 11 | > 32 µg/mL | 4 µg/mL | 10 | 2 to 4 µg/mL (≈ 2.86 to 5.72 µM) | > 32 µg/mL | 1 µg/mL (≈ 1.43 µM) | 5 to 9 | 32 to 128 µg/mL (≈ 45.8 to 183 µM) | 1 µg/mL (≈ 1.43 µM) | 1 µg/mL (≈ 1.43 µM) | 1 µg/mL (≈ 1.43 µM) | 8 to 10 | 10 | 2 µg/mL (≈ 2.86 µM) | > 8 | 1 µg/mL (≈ 1.43 µM) | 8 µg/mL (≈ 11.4 µM) | > 128 µg/mL | 3 to 4 | MIC (Klebsiella pneumoniae [24]): 8 µg/mL; MIC (Acinetobacter baumannii [25]): 1 to 2 µg/mL (≈ 1.43 to 2.86 µM); MIC (Pseudomonas aeruginosa [26]): 2 to 32 µg/mL; MIC (Pseudomonas aeruginosa [27]): > 32 µg/mL; Ratio (Pseudomonas aeruginosa [21]): >=8 - 64; MIC (Acinetobacter baumannii [22]): 2 µg/mL; MIC (Escherichia coli [23]): 2 µg/mL (≈ 2.86 µM); IC50 (DNA gyrase): Nd(Insoluble) |
